The values that follow come from patent US20100298377A1, “NOVEL SUBSTITUTED INDAZOLES, THE PREPARATION THEREOF AND USE OF SAME IN THERAPEUTICS” (SANOFI-AVENTIS, priority 2007, published 2010).

Data set [1] has as its target AKT1 (Homo sapiens, UniProt P31749, S473D). The data set can be described thus: Determination of the IC50 for AKT1 (HTRF). Format: biochemical. The following applies: AKT1 without PH domain, activated by PDK1. As for the experimental part: Determination of the IC50 for AKT1
The inhibitory potential of the compounds is evaluated by HTRF, a time-resolved fluorescence technique based on non-radiative energy transfer (FRET). […] This phosphorylation allows the kinase activity of AKT1 to be activated.
Starting with a 10 mM solution of inhibitors, 3 μl are taken and placed in a 96-well polypropylene plate containing 27 μl of 100% DMSO. The various test compounds are diluted in cascade by taking 15 μl of compound, to which are added 30 μl of 100% DMSO.
The various reaction components are added in the following manner:
Next, 10 μl of the inhibitor solution are added. Finally, the reaction is initiated by adding 10 μl of a solution containing both 100 μM of ATP and 10 μM of biotinylated peptide. The sequence of this peptide is as follows: biot-[…] (reference Neosystem SP000560). The plate is then covered with a plastic film, agitated and finally incubated at RT for 30 minutes. […] After incubation overnight at 4° C., the plate is read using an Ultra evolution spectrophotometer from Tecan. […] All the tests are performed in duplicate and the mean of the two tests is calculated.
For each point, a delta F is calculated in the following manner:
(§1) R(Ratio)=counts665 nm/counts620 nm
ΔF % is calculated by the Tecan Ultra Evolution machine.

Data set [2] relates to MEF-IGF1 murine fibroblast cells. The experiment in a line: IGF1-dependent proliferation of MEF-IGF1 cells via incorporation of [14C]-thymidine. The following applies: [14C]-thymidine incorporation, IGF1 stimulated, 72 hours; read-out: IC50 MEF-IGF. The class given is cell-based. The source says: a. Study of the IGF1-Dependent Proliferation of MEF-IGF1 Murine Fibroblast Cells Measured via Incorporation of [14C]-Thymidine
This test is based on the incorporation of [^14C]-thymidine into the DNA of the cells for the S phase of the cell cycle during cell division. The cell line used in this test is the MEF/3T3 Tet-Off Clone 18 line obtained by stable transfection of the human receptor IGF1R in murine MEF/3T3 Tet-Off fibroblasts. To measure the IGF1-dependent cell proliferation, the cells were deprived of serum and cultured for 3 days in the serum-free culture medium in the presence of the growth factor IGF1 which stimulates the proliferation of MEF-IGF1 cells.
Test of Incorporation of [^14C]-Thymidine into MEF-IGF1 Cells
On day 1, the cells were inoculated with 7500 cells per well in Cytostar 96-well microplates (Amersham (GE) RPNQ0162) in 200 μl of EMEM medium (EMEM, Biowhittaker, #BE12-662F) containing 10% foetal calf serum (FCS, TET-BD Biosciences Tet System Approved FBS US-Sourced, #8630-1) and 1% PSG (Penicillin-Streptomycin-Glutamine (PSG), Gibco #10378-016), and incubated at 37° C., 5% CO2, for 24 hours. On day 2, the cells were washed in the FCS-free EMEM culture medium containing 1% PSG, and incubated in 170 μl of this serum-free culture medium at 37° C., 5% CO2, for 24 hours. On day 3, the cells were incubated with 10 μl of IGF1 (2 μg/ml of final concentration; recombinant human IGF-1, R & D Systems, #291-G1), 10 μl (0.1 μCi) of [^14C]-Thymidine (NEN NEC-568) plus 10 μl of increasing concentrations of the test molecules, diluted in dimethyl sulfoxide (DMSO, Sigma D2650). The molecules were added in a volume of 10 μl of a 20-fold concentrated solution in a final volume of 200 μl, the final percentage of DMSO being 0.1%. The treated cells were incubated at 37° C., 5% CO2, for 72 hours. The incorporation of [^14C]-Thymidine was quantified in cpm units (counts per minute) by counting the radioactivity 72 hours after the start of the treatment, using a Micro-Beta radioactivity counter (Perkin-Elmer). The tests were performed in duplicate.
(§2) i) the mean±s.e.m. of each series of well replicates was calculated;
ii) the background noise is calculated by preparing cell-free, IGF1-free and untreated control wells; this control was performed in 4 replicates. The background noise was removed at each measurement;
iii) the maximum response is given by positive control wells containing cells in the presence of IGF1 but untreated; this control was performed in 4 replicates;
iv) the minimum response is given by negative control wells containing IGF1-free and untreated cells; this control was performed in 4 replicates;
(§3) The IC50 values were calculated by […] with the XLfit software (IDBS, UK) using formula 205.
In general terms: Incorporation of labelled thymidine or its analogues reports DNA synthesis.

The target in data set [3] is T1, Human S6K1 (24-421) T412E protein (Homo sapiens, UniProt P23443, T412E).
T1 construct: Human S6K1 (24-421) T412E protein; made in house; host or cells: Sf21 insect cells
The experiment in a line: Determination of the IC50 for S6K1 (HTRF substrate phosphorylation test). The class given is biochemical. As to conditions: S6K1 activated by PDK1, ATP 30 μM. On the procedure: Determination of the IC50 for S6K1
The inhibitory potential of the compounds for S6K1 is evaluated in an enzymatic test of phosphorylation of substrate in HTRF (Homogenous Time-Resolved Fluorescence) format. Human S6K1 (24-421) T412E protein is expressed in sf21 cells and purified by chromatography on a nickel chelate column. It is activated by PDK1.
The test comprises two steps, both performed at RT. The phosphorylation reaction takes place during the first step and the revelation step is performed during the second. […] The final concentrations of compounds thus obtained during the incubation period range from 10 μM to 0.17 nM and the concentration of enzyme is 2 nM. After incubation for 20 minutes, the reaction is stopped and the revelation initiated by addition of 30 μl of a mixture of streptavidin XL 665 Xlent, ref. 611SAXLB Cis bio international, and a europium cryptate-coupled anti-phospho-GSK3 antibody, ref. 64CUSKAZ Cis bio international, dissolved in the revelation buffer (HEPES/NaOH 166.7 mM, EDTA 221.7 mM, KF 667.7 mM, BSA 0.167%, pH 7.0). The reaction takes place in a black half-well plate ref. 3694 Costar.
A mixture of the reaction medium after each addition of reagent is obtained by agitation for a few minutes at 700-1000 rpm on a Heidolph Titramax 100 machine. The reading is taken on a TECAN Ultra Evolution machine after at least one night and up to 3 nights at 4° C. The reading settings are as follows: excitation wavelength 320 nm, emission wavelengths 620 and 665 nm, lag time 150 μs, integration time 500 μs.
For each point, the ΔF % is calculated as follows:
as §1
The IC50 values are calculated by means of the XLfit4 205 equation.

The subject of data set [4] is MIA PaCa-2 cells (human pancreatic carcinoma cells). The experiment in a line: Proliferation of MIA PaCa-2 cells, intracellular ATP, CellTiter-Glo test. As to conditions: 96 hours. The class given is cell-based.
From the text: b. Study of the Proliferation of Human Tumoral MIA PaCa-2, C-433, LnCaP and MCF7 Cells via Assay of the Intracellular ATP Using the Celltiter-Glo™ Test
The kit CellTiter-Glo™ for measuring cell viability via luminescence ([…]) is a homogeneous method for determining the number of viable cells in culture, based on quantification of the ATP present in the cells, and which indicates the presence of metabolically active cells.
The cell lines used in this test were the following: MIA PaCa-2 cells (human pancreatic carcinoma cells, ATCC, CRL-1420), C-433 cells (human Ewing sarcoma cells, DSMZ, ACC 268), LNCaP clone FGC cells (human prostate carcinoma cells, ATCC, CRL-1740), MCF7 cells (human breast carcinoma cells, ECACC, #86012803). The cells MIAPaCa-2 and LNCaP were cultured in D-MEM culture medium (Invitrogen Gibco, #419656-039) containing 10% foetal calf serum (FCS, Invitrogen Gibco, #10500-064) and 2 mM L-Glutamine (Invitrogen Gibco, #25030-024); the C-433 cells were cultured in MCCoy's 5A culture medium (Invitrogen Gibco, #26600-023)/RPMI 1640 (Invitrogen Gibco, #31870-025) (50/50) containing 10% FCS and 2 mM L-glutamine; the MCF7 cells were cultured in EMEM culture medium (EMEM, Biowhittaker, Lonza, #BE12-662F) containing 10% FCS and 2 mM L-Glutamine.
Evaluation of the Cell Viability via Luminescence Measurement: Celltiter-Glo™ Test
On day 1, the cells were inoculated at 1000 (C-433), 2500 (MCF7) and 10000 (LNCaP and MIA PaCa-2) cells per well in black-bottomed 96-well microplates (NUNC fluoronunc, Fisherbioblock 2311K) in 135 μl of whole culture medium and incubated at 37° C., 5% CO2, for 3 to 6 hours. The cells were then incubated with increasing concentrations of molecules diluted in dimethyl sulfoxide (DMSO, Sigma D2650). The molecules were added in a volume of 15 μl of a 10-fold concentrated solution in a final volume of 150 μl, the final percentage of DMSO being 0.1%. The cells were incubated at 37° C., 5% CO2, for 96 hours. After 4 days of treatment with the molecules, the CellTiter-Glo™ was performed by following the manufacturer's instructions (Kit Celltiter-Glo Luminescent, PROMEGA #G7571). Briefly, the cell plates were equilibrated for about 30 minutes at RT and 100 μl per well of Celltiter-Glo reagent were added. The cells were incubated for 1 hour at RT for lysis of the cells and stabilization of the signal. The intracellular ATP was quantified by measuring the luminescence in rlu units (relative luminescence units), 96 hours after initiation of the treatment, using a luminescence counter (Wallac). The tests were performed in six replicates.
as §2
ii) the maximum response is given by positive control wells containing untreated cells; this control was performed in 12 replicates;
iii) the minimum response is given by cell-free and untreated negative control wells; this control was performed in 6 replicates;
iv) using these maximum (100%) and minimum (0%) response values, respectively, the data were normalized to give a percentage relative to the maximum response;
as §3
A general note: In ATP-based viability assays light output follows the ATP content of the culture.

T1 sequence (P23443 24-421 T412E): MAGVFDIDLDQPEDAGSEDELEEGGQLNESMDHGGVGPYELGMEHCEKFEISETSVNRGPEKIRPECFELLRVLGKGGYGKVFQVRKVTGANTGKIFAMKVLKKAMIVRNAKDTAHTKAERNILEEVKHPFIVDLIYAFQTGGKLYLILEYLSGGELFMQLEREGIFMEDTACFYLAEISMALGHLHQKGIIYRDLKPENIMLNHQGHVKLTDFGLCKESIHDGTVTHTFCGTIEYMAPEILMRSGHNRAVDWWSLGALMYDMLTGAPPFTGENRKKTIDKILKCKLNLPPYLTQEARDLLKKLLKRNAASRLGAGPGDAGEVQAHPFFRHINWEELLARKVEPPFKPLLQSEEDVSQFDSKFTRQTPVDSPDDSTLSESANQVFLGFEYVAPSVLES
AKT1, sequence (P31749 118-480 S473D limits assumed): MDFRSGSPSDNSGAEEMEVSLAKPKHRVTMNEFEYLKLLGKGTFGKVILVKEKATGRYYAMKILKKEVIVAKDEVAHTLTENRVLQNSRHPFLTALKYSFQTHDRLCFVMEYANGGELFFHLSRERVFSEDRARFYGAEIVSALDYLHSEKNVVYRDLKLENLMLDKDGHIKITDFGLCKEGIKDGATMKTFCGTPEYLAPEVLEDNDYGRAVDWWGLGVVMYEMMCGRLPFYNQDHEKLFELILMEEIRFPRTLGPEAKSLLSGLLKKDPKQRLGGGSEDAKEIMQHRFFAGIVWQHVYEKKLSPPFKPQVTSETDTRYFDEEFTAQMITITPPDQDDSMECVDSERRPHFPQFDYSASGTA

As for “(6-Fluoro-1H-indazol-5-yl)-(S)-(3-chloro-5-fluorophenyl)-(S)-piperid-2-ylmethyl carbamate [Ex 50]”, the IC50 (in general, the concentration needed to halve the response being measured) in data set [1] is under 100 nM; in data set [2] it was 3160 nM.

In the case of `O=C(Nc1ccc2[nH]ncc2c1)N[C@H](c1ccccc1)[C@H]1CCCCN1` [Ex 9, 1-{(R)-(Phenyl)[(2R)-piperid-2-yl]methyl}-3-(1H-indazol-5-yl)urea], the melting point (commonly the temperature of the solid-liquid transition) lay in the range of 147 to 149 °C. In data set [1], this molecule returned an IC50 of 100 to 500 nM. In data set [3], this molecule showed an IC50 of 500 to 2000 nM.

As to `O=C(Nc1ccc2[nH]ncc2c1)O[C@H](c1cc(F)cc(Cl)c1)[C@@H]1CCCCN1` [Ex 40, (R)-(3-Chloro-5-fluorophenyl)[(2S)-piperid-2-yl]methyl 1H-indazol-5-ylcarbamate], the IC50 in data set [1] and in data set [3] was 500 to 2000 nM in each case.

In the case of `O=C(Nc1ccc2[nH]ncc2c1)O[C@H](c1ccc(Cl)c(Cl)c1)[C@@H]1CCCCN1` [Ex 38c, (R)-(3,4-Dichlorophenyl)[(2S)-piperid-2-yl]methyl 1H-indazol-5-ylcarbamate], the IC50 in data set [1] and in data set [3] was 100 to 500 nM throughout.

For the molecule `CN1CCCCC1C(NC(=O)Nc1cc(F)c2[nH]nc(N)c2c1)c1ccccc1` [Ex 20, 1-(3-Amino-7-fluoro-1H-indazol-5-yl)-3-[(1-methylpiperid-2-yl)(phenyl)methyl]urea((S,2S),(R,2R))], the IC50 in data set [4] was 10000 nM; in data set [1], 100 to 500 nM.

The molecule `O=C(Nc1ccc2[nH]ncc2c1)N[C@@H](c1ccccc1)[C@@H]1CCCCN1` [Ex 8, 1-{(S)-(Phenyl)[(2S)-piperid-2-yl]methyl}-3-(1H-indazol-5-yl)urea] showed a melting point of 195 °C. For the same molecule, the IC50 in data set [1] was under 100 nM. For the same molecule, the IC50 in data set [3] lay within 500 to 2000 nM.

For the molecule `O=C(Nc1ccc2[nH]ncc2c1)O[C@@H](c1cccc(C(=O)NC2CCCCC2)c1)[C@@H]1CCCCN1` [Ex 47, (S)-(3-Cyclohexylcarbamoylphenyl)-(S)-piperid-2-ylmethyl (1H-Indazol-5-yl)carbamate], the figures for the IC50 in data set [1] and in data set [3] were under 100 nM and 100 to 500 nM, respectively.

As for `O=C(Nc1ccc2[nH]nc(-c3ccncc3)c2c1)N[C@@H](c1ccc(Cl)c(Cl)c1)[C@@H]1CCCCN1` [Ex 16, 1-{(S)-(3,4-Dichlorophenyl)[(2S)-piperid-2-yl]methyl}-3-(3-pyrid-4-yl-1H-indazol-5-yl)urea], the IC50 was 7790 nM in data set [4] and 100 to 500 nM in data set [1].

With `CN1CCCCC1C(NC(=O)Nc1ccc2[nH]nc(-c3ccccn3)c2c1)c1ccccc1` [Ex 15, 1-[(1-Methylpiperid-2-yl)(phenyl)methyl]-3-(3-pyrid-2-yl-1H-indazol-5-yl)urea((S,2S),(R,2R))], the IC50 is 2800 nM in data set [4] and 100 to 500 nM in data set [1].

For `C=CCN1CCCC[C@H]1[C@@H](NC(=O)Nc1ccc2[nH]ncc2c1)c1ccccc1` [Ex 10, 1-{(S)-(Phenyl)[(2S)-1-allylpiperid-2-yl]methyl}-3-(1H-indazol-5-yl)urea], the melting point was determined as 195 °C. For the same molecule, the IC50 in data set [1] lay within 100 to 500 nM.

Turning to `Nc1n[nH]c2ccc(NC(=O)N[C@@H](c3ccc(Cl)c(Cl)c3)[C@@H]3CCCCN3)cc12` [Ex 29, 1-(3-Amino-1H-indazol-5-yl)-3-{(S)-(3,4-dichlorophenyl)[(2S)-piperid-2-yl]methyl}urea], the results for the IC50 in data set [1] and in data set [3] were under 100 nM and 500 to 2000 nM, respectively.
